Results from patent EP1801112A1, “Bicyclic pyrimidines and bicyclic 3,4-dihydropyrimidines as inhibitors of cellular proliferation” (Warner-Lambert Company LLC, priority 1998, dated 1999).
Like-named read-outs stand apart in the source and are kept apart here.

Assays:
Format in all cases: biochemical
[1] = target: cdk4/D (Homo sapiens, UniProt P11802); test: Cyclin-Dependent Kinase 4 (cdk4) Assay
Method: A typical assay, for instance, measures inhibitory activity against the cyclin D dependent kinase 4 enzyme (cdk4/D). […] The cdk4 assay was carried out as follows.
Cyclin-Dependent Kinase 4 (cdk4) Assay
Enzyme assays for IC50 determinations (Tables 1 and 2) and kinetic evaluation were performed in 96 well filter plates (Millipore MADVN6550). The total volume was 0.1 mL containing a final concentration of 20 mM TRIS (tris[hydroxymethyl]aminomethane), at pH 7.4, 50 mM NaCl, 1 mM dithiothreitol, 10 mM MgCl2, 25 µM ATP containing 0.25 µCi of [^32P]ATP, 20 ng of cdk4, 1 µg of retinoblastoma, and appropriate dilutions of a compound of the present invention. All components except the ATP were added to the wells, and the plate was placed on a plate mixer for 2 minutes. The reaction was started by adding [^32P]ATP and the plate was incubated at 25°C for 15 minutes. The reaction was terminated by addition of 0.1 mL of 20% trichloroacetic acid (TCA). The plate was kept at 4°C for at least 1 hour to allow the substrate to precipitate. The wells were then washed five times with 0.2 mL of 10% TCA and ^32P incorporation was determined with a beta plate counter (Wallac Inc., Gaithersburg, MD).

[2] = target: T1, FGF-1 (flg) receptor tyrosine kinase (Homo sapiens, UniProt P11362); test: FGF Receptor Tyrosine Kinase Assay; conditions: glutamate-tyrosine co-polymer substrate, 50 µM ATP
T1 construct: amplify a fragment of DNA that codes for the intracellular tyrosine kinase domain; made in house; host or cells: SF9 insect cells (baculovirus); crude cell lysate used
T1 sequence (P11362 478-767 limits assumed): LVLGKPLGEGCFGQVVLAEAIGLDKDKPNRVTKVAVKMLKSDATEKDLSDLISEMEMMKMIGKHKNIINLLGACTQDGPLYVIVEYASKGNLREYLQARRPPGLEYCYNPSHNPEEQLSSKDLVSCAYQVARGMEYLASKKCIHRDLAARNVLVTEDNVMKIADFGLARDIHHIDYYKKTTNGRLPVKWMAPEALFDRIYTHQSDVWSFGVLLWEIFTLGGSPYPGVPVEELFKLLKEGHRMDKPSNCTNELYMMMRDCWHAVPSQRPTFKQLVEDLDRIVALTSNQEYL
Method: PDGF and FGF Receptor Tyrosine Kinase Assays
PCR primers were designed to amplify a fragment of DNA that codes for the intracellular tyrosine kinase domain. The fragment was inserted into a baculovirus vector, cotransfected with AcMNPV DNA, and the recombinant virus isolated. SF9 insect cells were infected with the virus to overexpress the protein, and the cell lysate was used for the assay. Assays were performed in 96-well plates (100 µL/incubation/well), and conditions were optimized to measure the incorporation of ^32P from γ^32P-ATP into a glutamate-tyrosine co-polymer substrate. Briefly, to each well was added 82.5 µL of incubation buffer containing 25 mM Hepes (pH 7.0), 150 mM NaCl, 0.1% Triton X-100, 0.2 mM PMSF, 0.2 mM Na3VO4, 10 mM MnCl2, and 750 µg/mL of Poly (4:1) glutamate-tyrosine followed by 2.5 µL of inhibitor and 5 µL of enzyme lysate (7.5 µg/µL FGF-TK or 6.0 µg/µL PDGF-TK) to initiate the reaction. […] The reaction was terminated by the addition of 100 µL of 30% trichloroacetic acid (TCA) containing 20 mM sodium pyrophosphate and precipitation of material onto glass fiber mats (Wallac). […] Nonspecific activity was defined as radioactivity retained on the filters following incubation of samples with buffer alone (no enzyme). Specific enzymatic activity (enzyme plus buffer) was defined as total activity minus nonspecific activity. […]

[3] = target: cdk2/cyclinA (Homo sapiens, UniProt P24941); test: Cyclin-Dependent Kinase Assay cdk2/cyclinA
Method: (§1) Cyclin-Dependent Kinase Assays (cdk2/cyclinE, cdk2/cyclinA, cdc2/cyclinB)
(§2) All components except the ATP were added to the wells, and the plate was placed on a plate mixer for 2 minutes. The reaction was begun by addition of [^32P]ATP, and the plate was incubated at 25°C for 15 minutes. The reaction was terminated by addition of 0.1 mL of 20% TCA. The plate was kept at 4°C for at least 1 hour to allow the substrate to precipitate. The wells were then washed five times with 0.2 mL of 10% TCA and ^32P incorporation determined with a beta plate counter (Wallac Inc., Gaithersburg, MD).

[4] = target: cdc2/cyclinB (Homo sapiens, UniProt P06493); test: Cyclin-Dependent Kinase Assay cdc2/cyclinB
cdc2/cyclinB, sequence (P06493 whole entry): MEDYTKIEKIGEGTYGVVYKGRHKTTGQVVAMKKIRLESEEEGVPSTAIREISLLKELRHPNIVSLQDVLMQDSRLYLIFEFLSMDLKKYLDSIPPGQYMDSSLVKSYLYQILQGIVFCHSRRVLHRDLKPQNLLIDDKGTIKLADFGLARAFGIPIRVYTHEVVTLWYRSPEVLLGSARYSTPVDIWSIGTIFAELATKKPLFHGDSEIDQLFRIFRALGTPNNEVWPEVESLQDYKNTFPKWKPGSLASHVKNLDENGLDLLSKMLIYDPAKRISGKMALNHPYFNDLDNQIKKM
cdc2/cyclinB, sequence (P14635 whole entry, further chain): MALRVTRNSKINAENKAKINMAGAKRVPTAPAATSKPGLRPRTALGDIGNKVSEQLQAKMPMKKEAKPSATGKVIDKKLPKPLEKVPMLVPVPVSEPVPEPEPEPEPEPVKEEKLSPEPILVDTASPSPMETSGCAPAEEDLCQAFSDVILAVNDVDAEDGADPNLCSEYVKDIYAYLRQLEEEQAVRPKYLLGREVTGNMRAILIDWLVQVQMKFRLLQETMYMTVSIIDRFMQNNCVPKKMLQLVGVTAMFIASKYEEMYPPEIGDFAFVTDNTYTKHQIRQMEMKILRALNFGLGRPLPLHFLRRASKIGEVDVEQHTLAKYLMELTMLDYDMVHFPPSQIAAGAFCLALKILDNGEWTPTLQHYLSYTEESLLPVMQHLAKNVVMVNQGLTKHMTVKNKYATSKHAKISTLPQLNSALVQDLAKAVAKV
Method: as §1, §2

[5] = target: cdk2/cyclinE (Homo sapiens, UniProt P24941); test: Cyclin-Dependent Kinase Assay cdk2/cyclinE
Method: as §1, §2

[6] = retinoblastoma substrate, read-out: IC50 (µM) cdk2/A
[7] = 25 µM ATP, retinoblastoma substrate, read-out: IC50 (µM) cdk4/D
[8] = retinoblastoma substrate, read-out: IC50 (µM) cdkl/B
[9] = retinoblastoma substrate, read-out: IC50 (µM) cdk2/E

cdk4/D, sequence (P11802 whole entry): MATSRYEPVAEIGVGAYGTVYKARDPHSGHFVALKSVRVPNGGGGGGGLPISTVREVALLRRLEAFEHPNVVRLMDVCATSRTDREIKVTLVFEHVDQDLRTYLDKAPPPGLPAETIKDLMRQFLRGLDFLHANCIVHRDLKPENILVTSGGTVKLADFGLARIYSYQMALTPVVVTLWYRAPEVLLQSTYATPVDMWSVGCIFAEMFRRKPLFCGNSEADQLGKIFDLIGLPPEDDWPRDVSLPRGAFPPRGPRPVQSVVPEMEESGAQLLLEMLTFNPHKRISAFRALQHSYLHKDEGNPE
cdk4/D, sequence (P24385 whole entry, further chain): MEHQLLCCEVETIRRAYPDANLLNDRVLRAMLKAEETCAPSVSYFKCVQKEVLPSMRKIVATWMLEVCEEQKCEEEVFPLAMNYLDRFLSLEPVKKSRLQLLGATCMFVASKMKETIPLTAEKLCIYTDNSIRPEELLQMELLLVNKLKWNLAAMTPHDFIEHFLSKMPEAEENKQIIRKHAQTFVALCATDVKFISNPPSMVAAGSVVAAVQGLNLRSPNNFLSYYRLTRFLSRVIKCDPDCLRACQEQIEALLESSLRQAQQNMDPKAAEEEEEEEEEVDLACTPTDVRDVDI

Compound | IC50 [1] [µM] | IC50 [3] [µM] | IC50 [4] [µM] | IC50 [5] [µM] | further results
COc1ccc(Nc2ncc3c(n2)N(C2CCCC2)C(=O)NC3)cc1 [Example 9, 1-Cyclopentyl-7-(4-methoxyphenylamino)-3,4-dihydro-pyrimido[4,5-d]pyrimidin-2(1H)-one] | 5.75 | – | – | – | IC50 [2]: 0.36 µM
CCN(CC)CCOc1ccc(Nc2ncc3c(n2)N(C2CCCC2)C(=O)NC3)cc1C [Example 13, 1-Cyclopentyl-7-{3-methyl-4-[2-(diethylamino)ethoxy]phenylamino}-3,4-dihydro-pyrimido[4,5-d]pyrimidin-2(1H)-one] | 0.3 | – | – | – | IC50 [2]: 0.05 to 0.5 µM
O=C1NCc2cnc(Nc3ccc(N4CCC(CCCO)CC4)cc3)nc2N1C1CCCC1 [Example 20, 1-Cyclopentyl-7-{4-[4-(3-hydroxypropyl)piperidin-1-yl]phenylamino}-3,4-dihydro-pyrimido[4,5-d]pyrimidin-2(1H)-one] | 0.42 | 2.72 | > 40 | 5.35 | –
CC(C)N1C(=O)NCc2cnc(Nc3ccc(N4CCC(O)CC4)cc3)nc21 [Example 23, 7-[4-(4-Hydroxypiperidin-1-yl)phenylamino]-1-isopropyl-3,4-dihydropyrimido[4,5-d]pyrimidin-2(1H)-one] | – | 4.39 | > 40 | 16.8 | –
CC(C)N1C(=O)NCc2cnc(Nc3ccc(N4CCC(N(C)C)CC4)cc3)nc21 [Example 24, 7-{4-[4-(Dimethylamino)piperidin-1-yl]phenylamino}-1-isopropyl-3,4-dihydro-pyrimido[4,5-d]pyrimidin-2(1H)-one; compound with trifluoroacetic acid] | – | 12.3 | > 40 | 34 | –
CC(C)N1C(=O)NCc2cnc(Nc3ccc(-n4cccn4)cc3)nc21 [Example 25, 1-Isopropyl-7-[4-(pyrazol-1-yl)phenylamino]-3,4-dihydro-pyrimido[4,5-d]pyrimidin-2(1H)-one; compound with trifluoroacetic acid] | – | 2.31 | 36.5 | 10 | –
CC(C)N1C(=O)NCc2cnc(Nc3ccc(N4CCC(CCCN5CCOCC5)CC4)cc3)nc21 [Example 26, 1-Isopropyl-7-{4-[4-(3-(morpholin-1-yl)propyl)piperidin-1-yl]phenylamino}-3,4-dihydro-pyrimido[4,5-d]pyrimidin-2(1H)-one] | – | – | – | – | inhibition at 40 µM ([1]; read-out: % Inhibition at 40 µM cdk4/D): 47%
CN1CCN(c2ccc(Nc3ncc4c(n3)N(C)C(=O)NC4)cc2)CC1 [Example 28, 1-Methyl-7-[4-(4-methylpiperazin-1-yl)phenylamino]-3,4-dihydropyrimido[4,5-d]pyrimidin-2(1H)-one; compound with trifluoroacetic acid] | – | > 40 | > 40 | – | –
CN1C(=O)NCc2cnc(Nc3ccc(N4CCC(O)CC4)cc3)nc21 [Example 29, 7-[4-(4-Hydroxypiperidin-1-yl)phenylamino]-1-methyl-3,4-dihydropyrimido[4,5-d]pyrimidin-2(1H)-one; compound with trifluoroacetic acid] | > 40 | > 40 | > 40 | – | –
CN1C(=O)NCc2cnc(Nc3ccc(N4CCC(N(C)C)CC4)cc3)nc21 [Example 30, 7-{4-[4-(Dimethylamino)piperidin-1-yl]phenylamino}-1-methyl-3,4-dihydropyrimido[4,5-d]pyrimidin-2(1H)-one; compound with trifluoroacetic acid] | 18.2 | > 40 | > 40 | – | –
CN1C(=O)NCc2cnc(Nc3ccc(-n4cccn4)cc3)nc21 [Example 31, 1-Methyl-7-[4-(pyrazol-1-yl)phenylamino]-3,4-dihydro-pyrimido[4,5-d]pyrimidin-2(1H)-one; compound with trifluoroacetic acid] | – | > 40 | > 40 | – | –
O=c1ncc2cnc(Nc3ccc(N4CCC(O)CC4)cc3)nc2n1C1CCCC1 [Example 33, 1-Cyclopentyl-7-[4-(4-hydroxypiperidin-1-yl)phenylamino]pyrimido[4,5-d]pyrimidin-2(1H)-one] | – | – | – | – | IC50 [3, 6]: 0.98 µM; IC50 [1, 7]: 0.038 µM; IC50 [4, 8]: 9.76 µM; IC50 [5, 9]: 4.2 µM
CCN(CC)CCOc1ccc(Nc2ncc3cnc(=O)n(C4CCCC4)c3n2)cc1C [Example 34, 1-Cyclopentyl-7-{3-methyl-4-[2-(diethylamino)ethoxy]-phenylamino}pyrimido[4,5-d]pyrimidin-2(1H)-one] | 0.079 | 3.22 | 7.51 | 3.15 | –
COc1ccc(Nc2ncc3cnc(=O)n(C4CCCC4)c3n2)cc1 [Example 37, 1-Cyclopentyl-7-(4-methoxyphenylamino)pyrimido[4,5-d]pyrimidin-2(1H)-one] | 0.22 | 0.4 | 4.76 | 0.9 | –
O=c1ncc2cnc(Nc3ccc(N4CCCCC4)cc3)nc2n1C1CCCC1 [Example 38, 1-Cyclopentyl-7-[4-(piperidin-1-yl)phenylamino]pyrimido[4,5-d]pyrimidin-2(1H)-one] | – | – | – | – | IC50 [3, 6]: 0.77 µM; IC50 [1, 7]: 0.15 µM; IC50 [4, 8]: 35.2 µM; IC50 [5, 9]: 2.78 µM
CC(C)n1c(=O)ncc2cnc(Nc3ccc(-n4cccn4)cc3)nc21 [Example 42, 1-Isopropyl-7-[4-(pyrazol-1-yl)phenylamino]pyrimido[4,5-d]pyrimidin-2(1H)-one] | 3.9 | 5.81 | > 40 | > 40 | –
CN1CCN(c2ccc(Nc3ncc4cnc(=O)n(C)c4n3)cc2)CC1 [Example 45, 1-Methyl-7-[4-(4-methylpiperazin-1-yl)phenylamino]pyrimido[4,5-d]pyrimidin-2(1H)-one] | 16.2 | > 40 | > 40 | – | –
CN(C)C1CCN(c2ccc(Nc3ncc4cnc(=O)n(C)c4n3)cc2)CC1 [Example 46, 7-{4-[4-(Dimethylamino)piperidin-1-yl]phenylamino}-1-methyl-pyrimido[4,5-d]pyrimidin-2(1H)-one] | > 40 | > 40 | > 40 | – | IC50 [2]: 22.6 µM
Cn1c(=O)ncc2cnc(Nc3ccc(-n4cccn4)cc3)nc21 [Example 47, 1-Methyl-7-[4-(pyrazol-1-yl)phenylamino]pyrimido[4,5-d]pyrimidin-2(1H)-one] | > 40 | > 40 | > 40 | – | –
